Source: patent publication US6558954B1, “Phenotypic conversion of cells mediated by external guide sequences” (priority 1996, dated 2003)

System: bacterial species tested
Assay: TMP-mediated delivery of EGS, overall statement for the bacterial species tested
Format: cell-based
Conditions: E. coli, P. aeruginosa, S. aureus, B. subtilis (FIG. 2)
Text: The results in Example 1 indicate enhanced delivery of a nucleic acid to the Gram negative organism E. coli. […] Staphylococcus aureus (Gram positive), Pseudomonas aeruginosa (Gram negative) and Bacillus subtilis (Gram positive) were obtained from the ATCC and grown overnight. The bacteria were washed with TB and resuspended to give an OD of 1.0. TMP/EGS complexes were set up as in Example 1 and delivered to the cells.
The cells were washed three times with TB and then treated with lysozyme solutions with EDTA (for Gram negative) or without EDTA (for Gram positive) according to the protocol of Merchant et al., J. Photochem. Photobiol. B: Biol. 32:153-157 (1996). The amount of EGS present in the cell pellet and the cell wall fraction was calculated following scintillation counting.

## C[n+]1ccc(-c2c3nc(c(-c4cc[n+](C)cc4)c4ccc([nH]4)c(-c4cc[n+](C)cc4)c4nc(c(-c5cc[n+](C)cc5)c5ccc2[nH]5)C=C4)C=C3)cc1 [TMP, tetra meso (n-methyl 4-pyridyl)porphine]
  ability of TMP to deliver EGS: able to deliver EGS to the bacterial species tested
